Measured values from patent US20090069320A1, “Substituted 4-Amino-Quinazoline Compounds with Metabotropic Glutamate Receptor Regulating Activity and Uses Thereof” (Gruenenthal GmbH, priority 2006, published 2009).

Biological target: T1, mGluR5 receptor (Sus scrofa, UniProt I3LUI7)
T1 construct: 450 μg of protein from brain homogenate with 5 nM ^3[H]-MPEP; from tissue; host or cells: pig brain halves without medulla, cerebellum and pons
Test: [3H]-MPEP mGluR5 receptor binding assay (pig brain homogenate)
Settings: 5 nM [3H]-MPEP; for inhibition at 10 µM / % Inhibition of mGluR5 Receptor (pig) [^3H]-MPEP Bond at 10 μM: 10 μM compound; for inhibition at 10 µM: read-out: % Inhibition of mGluR5 Receptor (pig) [^3H]-MPEP Bond at 10 μM; for IC50: read-out: IC50 mGluR5 Receptor (pig) [^3H]-MPEP Bond
Method in brief: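 Compounds at 10 μM competed with 5 nM [3H]-MPEP for binding to pig brain membranes (450 μg protein) for 60 min at room temperature in pH 8.0 Hepes buffer. Bound radioactivity was collected on glass-fibre filters and read by β-counting, with 10 μM unlabelled MPEP giving non-specific binding.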

T1 sequence (I3LUI7 19-1212): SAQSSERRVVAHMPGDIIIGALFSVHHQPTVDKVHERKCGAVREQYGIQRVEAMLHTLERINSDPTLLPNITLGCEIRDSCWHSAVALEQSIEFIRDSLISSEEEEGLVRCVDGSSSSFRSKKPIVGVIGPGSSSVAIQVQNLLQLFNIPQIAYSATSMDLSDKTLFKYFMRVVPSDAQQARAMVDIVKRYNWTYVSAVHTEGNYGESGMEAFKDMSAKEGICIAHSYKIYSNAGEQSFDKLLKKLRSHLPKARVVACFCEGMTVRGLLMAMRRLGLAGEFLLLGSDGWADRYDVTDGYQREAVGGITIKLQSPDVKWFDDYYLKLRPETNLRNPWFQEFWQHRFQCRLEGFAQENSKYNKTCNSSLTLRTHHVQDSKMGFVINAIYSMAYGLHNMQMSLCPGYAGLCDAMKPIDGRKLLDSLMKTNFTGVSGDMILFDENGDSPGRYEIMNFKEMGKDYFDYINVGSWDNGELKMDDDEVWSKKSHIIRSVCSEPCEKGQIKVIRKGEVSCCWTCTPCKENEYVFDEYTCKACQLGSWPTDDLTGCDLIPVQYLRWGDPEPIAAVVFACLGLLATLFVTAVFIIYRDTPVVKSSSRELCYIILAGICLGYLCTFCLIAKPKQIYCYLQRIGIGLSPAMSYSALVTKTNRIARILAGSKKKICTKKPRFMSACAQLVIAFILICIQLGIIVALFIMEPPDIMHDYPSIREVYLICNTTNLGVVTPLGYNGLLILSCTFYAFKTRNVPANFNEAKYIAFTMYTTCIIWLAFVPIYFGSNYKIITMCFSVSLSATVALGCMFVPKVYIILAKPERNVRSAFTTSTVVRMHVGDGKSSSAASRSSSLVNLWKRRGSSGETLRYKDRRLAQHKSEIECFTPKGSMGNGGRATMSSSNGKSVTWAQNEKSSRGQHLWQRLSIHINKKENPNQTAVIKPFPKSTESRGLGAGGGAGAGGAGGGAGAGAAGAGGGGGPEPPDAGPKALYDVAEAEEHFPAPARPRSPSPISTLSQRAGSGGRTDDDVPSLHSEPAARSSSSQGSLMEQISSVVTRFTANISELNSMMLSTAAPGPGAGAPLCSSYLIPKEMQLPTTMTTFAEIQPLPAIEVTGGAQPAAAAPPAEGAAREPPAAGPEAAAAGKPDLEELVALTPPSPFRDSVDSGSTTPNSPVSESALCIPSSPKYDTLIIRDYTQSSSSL

Row | inhibition at 10 µM | Structure (SMILES) | further results
1 | 91% | O=S(=O)(c1cccs1)N(Cc1cc(-c2ccc3ncnc(NC4CC4)c3c2)ccc1Cl)C1CC1 [Example 734, N-(2-chloro-5-(4-(cyclopropylamino)quinazolin-6-yl)benzyl)-N-cyclopropylthiophene-2-sulfonamide] | 
2 | 72% | O=C(c1ccc(C(F)(F)F)cc1F)N(Cc1cc(-c2ccc3ncnc(NC4CC4)c3c2)ccn1)C1CC1 [Example 735, N-cyclopropyl-N-((4-(4-(cyclopropylamino)quinazolin-6-yl)pyridin-2-yl)methyl)-2-fluoro-4-(trifluoromethyl)benzamide] | 
3 | 91% | O=C(c1ccncc1)N(Cc1cccc(-c2cc(F)c3ncnc(NC4CC4)c3c2)c1)C1CC1 [Example 736, N-cyclopropyl-N-(3-(4-(cyclopropylamino)-8-fluoroquinazolin-6-yl)benzyl)isonicotinamide] | 
4 | 74% | Cc1cc2ncnc(NC3CC3)c2cc1-c1cccc(CN(C2CC2)S(=O)(=O)c2cccs2)c1 [Example 737, N-cyclopropyl-N-(3-(4-(cyclopropylamino)-7-methylquinazolin-6-yl)benzyl)thiophene-2-sulfonamide] | 
5 | 90% | O=C(c1ccc(C(F)(F)F)cc1F)N(Cc1cccc(-c2cc(F)c3ncnc(NC4CC4)c3c2)c1)C1CC1 [Example 738, N-cyclopropyl-N-(3-(4-(cyclopropylamino)-8-fluoroquinazolin-6-yl)benzyl)-2-fluoro-4-(trifluoromethyl)benzamide] | 
6 | 47% | CN(C)CC(=O)N(Cc1cc(-c2ccc3ncnc(NC4CC4)c3c2)ccn1)C1CC1 [Example 739, N-cyclopropyl-N-((4-(4-(cyclopropylamino)quinazolin-6-yl)pyridin-2-yl)methyl)-2-(dimethylamino)acetamide] | 
7 | 85% | O=C(c1ccccc1C(F)(F)F)N(Cc1cc(-c2ccc3ncnc(NC4CC4)c3c2)ccc1Cl)C1CC1 [Example 740, N-(2-chloro-5-(4-(cyclopropylamino)quinazolin-6-yl)benzyl)-N-cyclopropyl-2-(trifluoromethyl)benzamide] | 
8 | 37% | O=C(C1CCCCC1)N(Cc1cc(-c2ccc3ncnc(NC4CC4)c3c2)ccc1Cl)C1CC1 [Example 741, N-(2-chloro-5-(4-(cyclopropylamino)quinazolin-6-yl)benzyl)-N-cyclopropylcyclohexane carboxamide] | 
9 | 69% | O=S(=O)(c1cccc2cccnc12)N(Cc1cc(-c2ccc3ncnc(NC4CC4)c3c2)ccc1Cl)C1CC1 [Example 742, N-(2-chloro-5-(4-(cyclopropylamino)quinazolin-6-yl)benzyl)-N-cyclopropylquinoline-8-sulfonamide] | 
10 | 90% | COCC(=O)N(Cc1cccc(-c2cc(F)c3ncnc(NC4CC4)c3c2)c1)C1CC1 [Example 744, N-cyclopropyl-N-(3-(4-(cyclopropylamino)-8-fluoroquinazolin-6-yl)benzyl)-2-methoxyacetamide] | 
11 | 52% | Cc1cc2ncnc(NC3CC3)c2cc1-c1cccc(CN(C(=O)c2ccno2)C2CC2)c1 [Example 745, N-cyclopropyl-N-(3-(4-(cyclopropylamino)-7-methylquinazolin-6-yl)benzyl)isoxazole-5-carboxamide] | 

Continued, compound first:

Row | Structure (SMILES) | inhibition at 10 µM | further results
12 | Cc1cc2ncnc(NC3CC3)c2cc1-c1cccc(CN(C2CC2)S(=O)(=O)C(C)C)c1 [Example 705, N-cyclopropyl-N-(3-(4-(cyclopropylamino)-7-methylquinazolin-6-yl)benzyl)propane-2-sulfonamide] | 86% | 
13 | Cc1cc(C(=O)N(Cc2cccc(-c3cc4c(NC5CC5)ncnc4cc3C)c2)C2CC2)n(C)n1 [Example 706, N-cyclopropyl-N-(3-(4-(cyclopropylamino)-7-methylquinazolin-6-yl)benzyl)-1,3-dimethyl-1H-pyrazole-5-carboxamide] | 69% | 
14 | Cc1cc2ncnc(NC3CC3)c2cc1-c1cccc(CN(C(=O)c2ccncc2)C2CC2)c1 [Example 707, N-cyclopropyl-N-(3-(4-(cyclopropylamino)-7-methylquinazolin-6-yl)benzyl)isonicotinamide] | 89% | 
15 | O=C(c1ccccn1)N(Cc1cccc(-c2cc(F)c3ncnc(NC4CC4)c3c2)c1)C1CC1 [Example 708, N-cyclopropyl-N-(3-(4-(cyclopropylamino)-8-fluoroquinazolin-6-yl)benzyl)picolinamide] |  | IC50: 130 nM
16 | O=S(=O)(c1cccc2cccnc12)N(Cc1cccc(-c2cc(F)c3ncnc(NC4CC4)c3c2)c1)C1CC1 [Example 709, N-cyclopropyl-N-(3-(4-(cyclopropylamino)-8-fluoroquinazolin-6-yl)benzyl)quinoline-8-sulfonamide] | 36% | 
17 | CC(=O)N(Cc1cccc(-c2cc3c(NC4CC4)ncnc3cc2C)c1)C1CC1 [Example 710, N-cyclopropyl-N-(3-(4-(cyclopropylamino)-7-methylquinazolin-6-yl)benzyl)acetamide] |  | IC50: 110 nM
18 | Cc1cc2ncnc(NC3CC3)c2cc1-c1cccc(CN(C2CC2)S(=O)(=O)Cc2ccccc2)c1 [Example 713, N-cyclopropyl-N-(3-(4-(cyclopropylamino)-7-methylquinazolin-6-yl)benzyl)-1-phenylmethane sulfonamide] | 51% | 
19 | Cc1cc2ncnc(NC3CC3)c2cc1-c1cccc(CN(C(=O)c2ccccc2)C2CC2)c1 [Example 714, N-cyclopropyl-N-(3-(4-(cyclopropylamino)-7-methylquinazolin-6-yl)benzyl)benzamide] | 95% | 
20 | CCCCC(=O)N(Cc1cccc(-c2cc3c(NC4CC4)ncnc3cc2C)c1)C1CC1 [Example 715, N-cyclopropyl-N-(3-(4-(cyclopropylamino)-7-methylquinazolin-6-yl)benzyl)pentanamide] | 90% | 
21 | CC(=O)N(Cc1cccc(-c2cc(F)c3ncnc(NC4CC4)c3c2)c1)C1CC1 [Example 716, N-cyclopropyl-N-(3-(4-(cyclopropylamino)-8-fluoroquinazolin-6-yl)benzyl)acetamide] |  | IC50: 120 nM
22 | CNc1ncnc2ccc(-c3ccc(F)c(CN(C)C(=O)CN(C)C)c3)cc12 [Example 718, 2-(dimethylamino)-N-(2-fluoro-5-(4-(methylamino)quinazolin-6-yl)benzyl)-N-methylacetamide] | 40% | 
23 | Cc1cc2ncnc(NC3CC3)c2cc1-c1cccc(CN(C(=O)C(C)(C)C)C2CC2)c1 [Example 719, N-cyclopropyl-N-(3-(4-(cyclopropylamino)-7-methylquinazolin-6-yl)benzyl)pivalamide] | 84% | 
24 | Cc1cc2ncnc(NC3CC3)c2cc1-c1cccc(CN(C2CC2)S(=O)(=O)c2ccccc2)c1 [Example 721, N-cyclopropyl-N-(3-(4-(cyclopropylamino)-7-methylquinazolin-6-yl)benzyl)benzole sulfonamide] |  | % Inhibition of mGluR5 Receptor (pig) [^3H]-MPEP Bond at 10 μM: 87%
25 | COc1ccc(C(=O)N(Cc2cccc(-c3cc4c(NC5CC5)ncnc4cc3C)c2)C2CC2)cc1OC [Example 722, N-cyclopropyl-N-(3-(4-(cyclopropylamino)-7-methylquinazolin-6-yl)benzyl)-3,4-dimethoxybenzamide] | 72% | 
26 | Cc1cc2ncnc(NC3CC3)c2cc1-c1cccc(CN(C(=O)CN(C)C)C2CC2)c1 [Example 723, N-cyclopropyl-N-(3-(4-(cyclopropylamino)-7-methylquinazolin-6-yl)benzyl)-2-(dimethylamino)acetamide] | 43% | 
27 | CC(C)(C)C(=O)N(Cc1cccc(-c2cc(F)c3ncnc(NC4CC4)c3c2)c1)C1CC1 [Example 724, N-cyclopropyl-N-(3-(4-(cyclopropylamino)-8-fluoroquinazolin-6-yl)benzyl)pivalamide] | 86% | 
28 | Cc1cccc(CNc2ncnc3ccc(-c4cccc(CN(C(=O)CN(C)C)C5CC5)c4)cc23)c1 [Example 726, N-cyclopropyl-2-(dimethylamino)-N-(3-(4-(3-methylbenzylamino)quinazolin-6-yl)benzyl)acetamide] | 65% | 
29 | O=C(c1cccc(F)c1)N(Cc1cccc(-c2cc(F)c3ncnc(NC4CC4)c3c2)c1)C1CC1 [Example 727, N-cyclopropyl-N-(3-(4-(cyclopropylamino)-8-fluoroquinazolin-6-yl)benzyl)-3-fluorobenzamide] | 93% | 
30 | O=C(c1cccc(C(F)(F)F)c1)N(Cc1cccc(-c2cc(F)c3ncnc(NC4CC4)c3c2)c1)C1CC1 [Example 728, N-cyclopropyl-N-(3-(4-(cyclopropylamino)-8-fluoroquinazolin-6-yl)benzyl)-3-(trifluoromethyl)benzamide] | 63% | 
31 | COc1ccc(CNc2ncnc3ccc(-c4cccc(CN(C(=O)c5cc(C)nn5C)C5CC5)c4)cc23)c(OC)c1 [Example 730, N-cyclopropyl-N-(3-(4-(2,4-dimethoxybenzylamino)quinazolin-6-yl)benzyl)-1,3-dimethyl-1H-pyrazole-5-carboxamide] | 35% | 
32 | O=S(=O)(c1ccccc1)N(Cc1cc(-c2ccc3ncnc(NC4CC4)c3c2)ccn1)C1CC1 [Example 731, N-cyclopropyl-N-((4-(4-(cyclopropylamino)quinazolin-6-yl)pyridin-2-yl)methyl)benzole sulfonamide] |  | % Inhibition of mGluR5 Receptor (pig) [^3H]-MPEP Bond at 10 μM: 86%
33 | O=C(c1cccc(C(F)(F)F)c1)N(Cc1cc(-c2ccc3ncnc(NC4CC4)c3c2)ccc1Cl)C1CC1 [Example 732, N-(2-chloro-5-(4-(cyclopropylamino)quinazolin-6-yl)benzyl)-N-cyclopropyl-3-(trifluoromethyl)benzamide] | 63% | 
34 | CN(C)CC(=O)N(Cc1cc(-c2ccc3ncnc(NC4CC4)c3c2)ccc1Cl)C1CC1 [Example 733, N-(2-chloro-5-(4-(cyclopropylamino)quinazolin-6-yl)benzyl)-N-cyclopropyl-2-(dimethylamino)acetamide] | 39% | 
